In BindingDB's records for patent US20130102619 (2013):

Biological target: T1, Orexin receptor type 2 (Homo sapiens, UniProt O43614)
T1 sequence (O43614 whole entry): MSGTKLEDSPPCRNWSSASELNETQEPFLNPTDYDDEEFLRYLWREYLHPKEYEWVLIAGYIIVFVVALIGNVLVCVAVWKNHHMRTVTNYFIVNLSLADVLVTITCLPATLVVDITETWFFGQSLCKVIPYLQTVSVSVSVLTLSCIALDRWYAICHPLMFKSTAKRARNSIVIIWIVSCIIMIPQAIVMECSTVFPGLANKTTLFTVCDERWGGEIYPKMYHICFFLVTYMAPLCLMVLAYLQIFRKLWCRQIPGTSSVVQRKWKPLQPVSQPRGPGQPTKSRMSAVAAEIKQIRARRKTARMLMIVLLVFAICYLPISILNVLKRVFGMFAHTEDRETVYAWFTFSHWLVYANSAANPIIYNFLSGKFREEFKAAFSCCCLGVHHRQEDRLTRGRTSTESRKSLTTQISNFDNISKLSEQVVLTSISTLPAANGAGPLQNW
Experiment: FLIPR Ca2+ Flux Assay
Conditions: 37 °C
Experimental: Chinese hamster ovary (CHO) cells expressing the rat orexin-1 receptor or the human orexin-2 receptor, are grown in Iscove's modified DMEM containing 2 mM L-glutamine, […], 1% hypoxanthine-thymidine supplement, 100 U/ml penicillin, 100 ug/ml streptomycin and 10% heat-inactivated fetal calf serum (FCS). The cells are seeded at 20,000 cells/well into Becton-Dickinson black 384-well clear bottom sterile plates coated with poly-D-lysine. All reagents were from GIBCO-Invitrogen Corp. The seeded plates are incubated overnight at 37° C. and 5% CO2. Ala-6,12 human orexin-A as the agonist is prepared as a 1 mM stock solution in 1% bovine serum albumin (BSA) and diluted in assay buffer (HBSS containing 20 mM HEPES, 0.1% BSA and 2.5 mM probenecid, pH7.4) for use in the assay at a final concentration of 70 pM. Test compounds are prepared as 10 mM stock solution in DMSO, then diluted in 384-well plates, first in DMSO, then assay buffer. On the day of the assay, cells are washed 3 times with 100 ul assay buffer and then incubated for 60 min (37° C., 5% CO2) in 60 ul assay buffer containing 1 uM Fluo-4AM ester, 0.02% pluronic acid, and 1% BSA. The dye loading solution is then aspirated and cells are washed 3 times with 100 ul assay buffer. 30 ul of that same buffer is left in each well. Within the Fluorescent Imaging Plate Reader (FLIPR, Molecular Devices), test compounds are added to the plate in a volume of 25 ul, incubated for 5 min and finally 25 ul of agonist is added. Fluorescence is measured for each well at 1 second intervals for 5 minutes and the height of each fluorescence peak is compared to the height of the fluorescence peak induced by 70 pM Ala-6,12 orexin-A with buffer in place of antagonist.

SMILES | IC50
C[C@@H]1CC[C@@H](Oc2cc(C#N)ccn2)CN1C(=O)c1ccccc1-n1nccn1 [US20130102619, 1] | 12 nM
Cc1nc(-c2ccccc2C(=O)N2C[C@H](Oc3cc(C#N)ccn3)CC[C@H]2C)no1 [US20130102619, 3] | 18 nM
C[C@@H]1CC[C@@H](Oc2cc(C#N)ccn2)CN1C(=O)c1ccccc1-c1ncccn1 [US20130102619, 2] | 28 nM
